Measurements taken from patent US10172832B2, “Amide derivatives of N-urea substituted amino acids as formyl peptide receptor like-1 (FPRL-1) receptor modulators” (Allergan, Inc., priority 2011, dated 2019).

Target: T1, FPRL-1 (Homo sapiens, UniProt P25090)
T1 construct: expressed in transfected cells
T1 sequence (P25090 1-351): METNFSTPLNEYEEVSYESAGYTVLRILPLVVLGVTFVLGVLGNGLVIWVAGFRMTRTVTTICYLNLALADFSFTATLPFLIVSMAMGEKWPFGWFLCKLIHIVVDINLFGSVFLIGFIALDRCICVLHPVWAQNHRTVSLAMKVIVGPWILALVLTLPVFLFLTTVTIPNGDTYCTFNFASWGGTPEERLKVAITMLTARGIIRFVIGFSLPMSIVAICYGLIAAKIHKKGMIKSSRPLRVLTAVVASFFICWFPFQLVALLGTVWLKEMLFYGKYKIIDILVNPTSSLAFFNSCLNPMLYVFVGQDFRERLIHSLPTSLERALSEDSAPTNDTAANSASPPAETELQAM
Assay: compound-induced calcium activity on FLIPR Tetra in CHO-Gα16 cells stably expressing FPRL1
Type: cell-based
Procedure, shortened: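 CHO-Gα16 cells stably expressing FPRL1, plated at 18,000 cells/well the day before, were read for compound-induced calcium response on FLIPR Tetra.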

FPRL-1 Ga16-CHO (Rel. eff.) (relative efficacy): (1.08)
EC50 (tested 0.61 to 10,000 nM, read-out: FPRL-1 Ga16-CHO EC50): 9.1 nM
SMILES: CC(C)C[C@H](NC(=O)Nc1ccc(Br)cc1)C(=O)N[C@H](C(=O)O)c1ccccc1 [Compound 52, (2S)-{[(2S)-2-{[(4-bromophenyl)carbamoyl]amino}-4-methylpentanoyl]amino}(phenyl)ethanoic acid]
